Assay results as given in patent US8404279B2, “Method for improving the bud quality of a plant” (Bayer CropScience AG, priority 2007, dated 2013).
Read-outs that look alike come from different tables or passages of the source. Marks after values point to notes of the source that are not given here.

Columns and labels:
[1] = test system: pear trees (Conference cultivar); assay: Productivity of the pear trees after the treatments (field trial); assay type: in vivo; conditions: 2006, treated 2004 and 2005
Experimental: (§1) During three consecutive years 2004, 2005 and 2006, a trial was carried out on young pear trees of the Conference cultivar on a Quince Adams stock. The pear trees of this orchard were planted in 1999 according to the system of a single row at a planting distance of 3.5 m between the rows and 1.5 m in the row with a tree height of 3 m.
(§2) During the 2004 trial, three products were compared in an arbitrary block design with 10 trees per plot in four repeats: the observations were made on the 8 trees inside the plot. […] The applications were in the post-flower period at an interval of 10 days.
(§3) In 2005, the same applications were repeated on the same trees.
(§4) After one year during flowering, the effect of the treatments on the quality of the flower bud was evaluated. Statistical analysis of the various parameters is performed (Unistat Statistical Package, Version 5.5). The original or processed data are analyzed according to the General Linear Model and the treatment means are separated in a standard manner using the Duncan multiple classification test (5% level).

[2] = flower buds 2006; for Fosetyl-Al residue: 10 days
Description: In 2006, the magnitude of the levels of fosetyl-Al and phosphorous acid residues in the developing flower buds was monitored on three plots: in the control untreated plot, in the plot treated with fosetyl-Al based on 3×3.75 kg/ha (application on 18/05, 30/05 and 08/06) and in the plot treated with fosetyl-Al based on 6×2.0 kg/ha (application on 18/05, 30/05, 08/06, 19/06, 29/06 and 10/07).
On each date (with the exception of the first sampling date), 40 flower buds with their surrounding leaves were gathered. On the first sampling date, 40 flower buds were gathered without leaves.
The flower bud samples were taken before the next treatment on the following dates: 30/05, 08/06, 19/06, 28/06, 10/07 and 28/08. For the two fosetyl-Al and phosphorous acid products, the levels of residues in the flower buds were determined with the aid of an LC-MS-MS analytical method. The limit of quantification (LOQ) was 0.1 mg/kg for fosetyl-Al, 2 mg/kg for phosphorous acid and 3 mg/kg for the total residue expressed as fosetyl-Al equivalent. The total residue is the sum of the residues derived from fosetyl-Al and phosphorous acid expressed as fosetyl-Al equivalent.
The results are calculated according to the following formula:
[formula] in which: • Mfosetyl-Al represents the molecular weight of fosetyl-Al: 354.1 g/mol • Mphosphorous acid represents the molecular mass of phosphorous acid: 82 g/mol; multiplied by 3, since 1 mol of fosetyl-Al corresponds to 3 mol of phosphorous acid.
For the pear bud samples, the fosetyl-Al and phosphorous acid residues are extracted with the aid of an acetonitrile/water (50:50, v/v) mixture. After centrifugation and dilution of the sampling material, the residues are quantified by HPLC and detected by tandem mass spectrometry with electrospray ionization. The quantification is performed by external standardization. The statistical analysis is performed per parameter on the complete set of data for the different sampling dates.

[3] = test system: flower bud dieback on pear trees (Conference variety); assay: Flower bud quality field trial against flower bud dieback on young pear trees; assay type: in vivo, pear trees (Conference cultivar); conditions: for Good quality buds (%) 1 yw S: 1-year old wood side position; for Good quality buds (%) 1 yw S / Good quality buds (%) 1 yw T / Good quality buds (%) 2 yw / Good quality buds (%) Per tree: treated 2004 and 2005, 2006 flower buds; for Good quality buds (%) 1 yw T: 1-year old wood terminal position; for Good quality buds (%) 2 yw: 2-year old wood
Experimental: as §1, §2, §3
In 2006, the complete trial was repeated on new trees in the same orchard. The fosetyl-Al doses varying between 2 and 3.75 kg/ha of standard orchard (corresponding to doses varying from 1.33 to 2.50 kg/ha of foliar surface area) were applied in the post-flower period during the months of May and June at an interval of 5 or 10 days between the treatments. Benzothiadiazole applied at a dose of 200 g/ha of standard orchard (corresponding to a dose of 133 g/ha of foliar surface area) was included as reference product in order to induce plant defense reactions by the trees.
as §4

[4] = test system: pear trees (Conference cultivar); conditions: plot treated at 3.75 kg/ha, 2004 treatments
Description: as §2, §3

[5] = 3 x 3.75 kg/ha May interval 10 + 3 x 3.75 kg/ha June interval 14, object excluded from statistical analysis
[6] = 3 x 3.75 kg/ha May, interval 10
[7] = 3 x 3.75 kg/ha May, primary efflorescence
[8] = 3 x 3.75 kg/ha May interval 10 + 3 x 3.75 kg/ha June interval 14
[9] = treated 2004, 2005 flower buds, 3 x 3.75 kg/ha May interval 10 + 1 x 3.75 kg/ha AH
[10] = treated 2004, 2005 flower buds, 3 x 3.75 kg/ha May interval 10 + 3 x 3.75 kg/ha June interval 14
[11] = treated 2004, 2005 flower buds, 3 x 3.75 kg/ha May, interval 10
[12] = treated 2006, 2007 flower buds, 3 x 3.75 kg/ha June, interval 10
[13] = treated 2006, 2007 flower buds, 3 x 3.75 kg/ha May, interval 10
[14] = treated 2006, 2007 flower buds, 6 x 2 kg/ha June, interval 5
[15] = treated 2006, 2007 flower buds, 6 x 2 kg/ha May, interval 5
[16] = treated 2006, 2007 flower buds, 6 x 2 kg/ha May-June, interval 10
[17] = treated 2004, 2005 flower buds, 3 x dose 3 (kg/ha) May, interval 10
[18] = treated 2004, 2005 flower buds, 3 x dose 11.25 (kg/ha) May, interval 10
[19] = 3 x 0.2 kg/ha May interval 10 + 3 x 0.2 kg/ha June interval 14
[20] = treated 2004, 2005 flower buds, 3 x 0.2 kg/ha May interval 10 + 3 x 0.2 kg/ha June interval 14
[21] = treated 2006, 2007 flower buds, 3 x 0.2 kg/ha May, interval 10

What does the source list for `CCO[PH](=O)O.[Al]` [Fosetyl-Al, aluminum ethyl hydrogen phosphonate]?
Average weight (g) [1, 5]: 137.9* g; Number of fruits/tree [1, 5]: 152.2* fruits/tree; Productivity (kg/tree) [1, 5]: 21* kg/tree; Average weight [1, 6]: 144.8 g; Number of fruits/tree [1, 6]: 148.8 fruits/tree; Productivity (kg/tree) [1, 6]: 21.5 kg/tree; Average weight [1, 7]: 157.7 g; Number of fruits/tree [1, 7]: 140.4 fruits/tree; Productivity (kg/tree) [1, 7]: 22.1 kg/tree; time the level of fosetyl-Al residue was maintained after the last treatment ([2]; dose of 3.75 kg/ha): approximately 4 weeks; Fosetyl-Al residue ([2]; fosetyl-Al 3 x 3.75 kg/ha May, sampling 08/06): 12.92 mg/kg; Fosetyl-Al residue ([2]; fosetyl-Al 3 x 3.75 kg/ha May, sampling 10/07): 2.14 mg/kg; Fosetyl-Al residue ([2]; fosetyl-Al 3 x 3.75 kg/ha May, sampling 19/06): 10.65 mg/kg; Fosetyl-Al residue ([2]; fosetyl-Al 3 x 3.75 kg/ha May, sampling 28/06): 10.83 mg/kg; Fosetyl-Al residue ([2]; fosetyl-Al 3 x 3.75 kg/ha May, sampling 28/08): 0.11 mg/kg; Fosetyl-Al residue ([2]; fosetyl-Al 3 x 3.75 kg/ha May, sampling 30/05): 0.1 mg/kg; Fosetyl-Al residue ([2]; fosetyl-Al 6 x 2 kg/ha May-June, sampling 08/06): 10.64 mg/kg; Fosetyl-Al residue ([2]; fosetyl-Al 6 x 2 kg/ha May-June, sampling 10/07): 2.86 mg/kg; Fosetyl-Al residue ([2]; fosetyl-Al 6 x 2 kg/ha May-June, sampling 19/06): 4.52 mg/kg; Fosetyl-Al residue ([2]; fosetyl-Al 6 x 2 kg/ha May-June, sampling 28/06): 20.56 mg/kg; Fosetyl-Al residue ([2]; fosetyl-Al 6 x 2 kg/ha May-June, sampling 28/08): 0.18 mg/kg; Fosetyl-Al residue ([2]; fosetyl-Al 6 x 2 kg/ha May-June, sampling 30/05): 0.1 mg/kg; Good quality buds (%) 1 yw S [3, 8]: 68.4%; Good quality buds (%) 1 yw S [3, 6]: 56.5%; Good quality buds (%) 1 yw S [3, 7]: 69.8%; Good quality buds (%) 1 yw T [3, 8]: 97.2%; Good quality buds (%) 1 yw T [3, 6]: 82.7%; Good quality buds (%) 1 yw T [3, 7]: 90.2%; Good quality buds (%) 2 yw [3, 8]: 86.1%; Good quality buds (%) 2 yw [3, 6]: 75.1%; Good quality buds (%) 2 yw [3, 7]: 68.2%; flower bud quality with an additional treatment after harvesting versus post-flower treatments alone ([3]; 2004 treatments, 2005 buds): results comparable; Buds of good quality [3, 9]: 88.3%; Number of incomplete buds/tree [3, 9]: 9.2 buds/tree; Buds of good quality [3, 10]: 89.3%; Number of incomplete buds/tree [3, 10]: 7.9 buds/tree; Buds of good quality [3, 11]: 88.4%; Number of incomplete buds/tree [3, 11]: 7.9 buds/tree; Good quality buds (%) Per tree [3, 8]: 92.3%; Good quality buds (%) Per tree ([3]; 3 x 3.75 kg/ha May interval 10 + 3 x 3.75 kg/ha June interval 14, listed as fosetyl-Al): 92%; Good quality buds (%) Per tree [3, 6]: 85.9%; Good quality buds (%) Per tree ([3]; 3 x 3.75 kg/ha May, interval 10, listed as fosetyl-Al): 86%; Good quality buds (%) Per tree [3, 7]: 75.4%; Good quality buds (%) Per tree ([3]; 3 x 3.75 kg/ha May, primary efflorescence, listed as fosetyl-Al): 75%; percentages of flower buds that have died back or that are incomplete ([3]; treated 2006, 2007 buds, all objects treated with fosetyl-Al): significantly reduced; Buds that have died back (%) [3, 12]: 31.6%; Good quality buds (%) [3, 12]: 62.5%; Number of incomplete buds/tree [3, 12]: 5.9 buds/tree; Buds that have died back (%) [3, 13]: 33.4%; Good quality buds (%) [3, 13]: 59.3%; Number of incomplete buds/tree [3, 13]: 7.2 buds/tree; Good quality buds (%) ([3]; treated 2006, 2007 flower buds, 3 x 3.75 kg/ha May, interval 10, listed as fosetyl-Al): 59%; Buds that have died back (%) [3, 14]: 31.5%; Good quality buds (%) [3, 14]: 63.5%; Number of incomplete buds/tree [3, 14]: 5 buds/tree; Buds that have died back (%) [3, 15]: 33%; Good quality buds (%) [3, 15]: 59.6%; Number of incomplete buds/tree [3, 15]: 7.4 buds/tree; Good quality buds (%) ([3]; treated 2006, 2007 flower buds, 6 x 2 kg/ha May, interval 5, listed as fosetyl-Al): 59%; Buds that have died back (%) [3, 16]: 33.9%; Good quality buds (%) [3, 16]: 61.2%; Number of incomplete buds/tree [3, 16]: 4.9 buds/tree; phytotoxicity [4]: absence of phytotoxicity

With potassium phosphonate as the compound, how does the “Buds of good quality” value [3, 17] read?
Its value is 89.5%.

What about the “Number of incomplete buds/tree” value [3, 17] of the same compound?
Its value is 7.2 buds/tree.

What about the “Buds of good quality” value [3, 18] of the same compound?
The value was 92.4%.

And the “Number of incomplete buds/tree” value [3, 18]?
The value was 4.8 buds/tree.

With `c1ccc2snnc2c1` [Benzothiadiazole, benzothiadiazole] as the compound, how does the “Average weight” value [1, 19] read?
The value was 163.2 g.

And the Number of fruits/tree [1, 19]?
The Number of fruits/tree was 113.88 fruits/tree.

What about the “Productivity (kg/tree)” value [1, 19] of the same compound?
The value was 18.5 kg/tree.

What about the “Good quality buds (%) 1 yw S” value [3, 19] of the same compound?
The value was 56.6%.

What about the “Good quality buds (%) 1 yw T” value [3, 19] of the same compound?
Its value is 54.6%.

And the “Good quality buds (%) 2 yw” value [3, 19]?
Its value is 58.5%.

What about the “activity on flower bud quality” value ([3]; 2004 treatments, 2005 buds, reference product) of the same compound?
The value was “insufficient activity”.

And the “Buds of good quality” value [3, 20]?
The value was 71.2%.

And the “Number of incomplete buds/tree” value [3, 20]?
The value was 22.5 buds/tree.

And the “Good quality buds (%) Per tree” value [3, 19]?
The value was 62.8%.

What about the “Buds that have died back (%)” value [3, 21] of the same compound?
Its value is 43.5%.

And the “Good quality buds (%)” value [3, 21]?
The value was 44.2%.

What about the “Number of incomplete buds/tree” value [3, 21] of the same compound?
The value was 12.3 buds/tree.
